# Several values for one entry are separate records, joined by “and”; a condition that tells them apart may be missing. Equal entries are not always repeated.
# Experiments:
# [1] = tested on: kidney tissues of treated or untreated rats; test: Real-time qRT-PCR of signature amplicons, validation stage, labeled and un-labeled samples (Table 23); conditions: for H31883_DB71_seg13 normalized qRT-PCR result / MUSCYCG1R_DB81_seg19-20 normalized qRT-PCR result / W41270_DB81_seg11 normalized qRT-PCR result: un-labeled sample, one line per animal; for AI045075_DB71_seg6 normalized qRT-PCR expression (Interferon stimulated exonuclease 20 (ISG20) transcript) / H31883_DB71_seg13 normalized qRT-PCR expression (Cyclin-G1 (CCNG1) transcript) / MUSCYCG1R_DB81_seg19-20 normalized qRT-PCR expression / W41270_DB81_seg11 normalized qRT-PCR expression (tumor necrosis factor receptor superfamily, member 12a transcript) / W64472_DB81_seg2 normalized qRT-PCR expression (Interferon stimulated exonuclease 20 (ISG20) transcript) / W83813_DB81_seg27 normalized qRT-PCR expression: un-labeled samples, kidney of individual male/female rats
# Text: New primers were designed for part of the transcripts, and new conditions for several qRT-PCR reactions were used, as described below.
# The measurements were normalized in two steps. First—according to the house-keeping-genes normalization factor, and second—each plate was normalized according to ratio of the intensity measurements from samples appearing in it and in the shuffled (normalization) plate (Table 25 provides the plates details and the section “Inter-Plate Normalization” provides details of the normalization process). The normalized values were further scaled by a factor, for ease of viewing.
# RT was prepared and qRT-PCR performed and analyzed as described hereinabove. qRT-PCR was performed for the four genes comprising the signature of the discovery stage described in Table 13. Two amplicons were tested for each gene—one representing the wild-type transcript, and another representing an alternative splice variant. Each amplicon was measured using the labeled samples described in Table 9 herein, as well as the un-labeled samples. Samples from both groups (labeled and un-labeled) were tested in seven 96 well plates as described in Table 25. In order to correct possible run to run variations, the following controls were added: 1. several samples were repeated in all 96 wells plates; 2. control shuffled plate was designed which combined samples from all seven test plates.
# To account for possible differences of qRT-PCR measurements between the different plates due to experimental artifacts, a normalization plate was planned. This plate, designated hereinabove ‘shuffled plate’, contained samples from all other plates. Real Time PCR was performed on this plate using the primers appropriate for all candidates in tables 26 and 27. For each other plate (plates 1-7 above) and each amplicon, the samples appearing also in the shuffled plate were examined—the ratio between the transcript abundance as measured in the plate to the abundance as measured in the shuffled plate was calculated, outliers were manually removed, and the geometric mean of the left ratios was taken as an additional multiplicative normalization factor for the plate and amplicon.
# rat kidney samples = test: Random-Forest classifiers applied to un-labeled samples of T1, T2, T3 and control (Table 30); conditions: for Average 'Toxic' (%): average of the two classifiers
# Description: To validate the optimal signature for classification of renal toxicity of a compound after five days of application a test of the signatory polynucleotide/gene expression in rat kidney samples consisting of tissues from rats exposed to three drug compounds and a single control group was carried out (Teva Pharmaceutical Industries, IL).
# The two optimal classifiers (signatures described in Tables 26 and 27) were applied to the qRT-PCR reads of the un-labeled samples and their calls was used to assign a level of toxicity to each group and, eventually, each compound.
# The classifiers described in Tables 26 and 27, were used for testing the un-labeled samples. Both classifiers were applied to the measurements of each sample, used the 30% bound from above, and the number of samples pass that bound in each group were summarized.
# kidney = test: Renal histopathology of rats treated with T1, T2, T3; type: in vivo, rat; conditions: rats
# Description: Each group consisted of 6 male and 6 female rats. The additional groups consisted of 6 males and 6 female rats treated with control compound for a single day and for five days, as described in Table 24.
# T2 “no observed effect level” (NOEL, i.e., the maximal dose at which no toxic effect is visible) is 15 mg/kg.
# At autopsy, both kidneys of each animal were removed and each kidney was cross sectioned. Half of each kidney was sent to RNA extraction and analysis.
# [2] = Ds1, Day1, oral gavage, female rat kidney
# [3] = Ds1, Day1, oral gavage, male rat kidney
# [4] = Ds1, Day5, oral gavage, female rat kidney
# [5] = Ds1, Day5, oral gavage, male rat kidney
# [6] = Ds2, Day1, oral gavage, female rat kidney
# [7] = Ds2, Day1, oral gavage, male rat kidney
# [8] = Ds2, Day5, oral gavage, female rat kidney
# [9] = Ds2, Day5, oral gavage, male rat kidney
structure (smiles),measurement,setting,value
C#CCN(C)c1nc2ccc(OC(F)(F)F)cc2s1 [T1],H31883_DB71_seg13 normalized qRT-PCR result,[1]; [2],0.825 and 0.917 and 1.186
same,MUSCYCG1R_DB81_seg19-20 normalized qRT-PCR result,[1]; [2],0.49 and 0.762 and 0.981
same,W41270_DB81_seg11 normalized qRT-PCR result,[1]; [2],0.752 and 0.548 and 1.047
same,H31883_DB71_seg13 normalized qRT-PCR result,[1]; [3],0.155 and 0.178 and 0.143 and 0.169 and 0.245
same,MUSCYCG1R_DB81_seg19-20 normalized qRT-PCR result,[1]; [3],0.574 and 1.13 and 0.805 and 0.4 and 1.416
same,W41270_DB81_seg11 normalized qRT-PCR result,[1]; [3],0.778 and 1.501 and 0.981 and 0.439 and 1.502
same,H31883_DB71_seg13 normalized qRT-PCR result,[1]; [4],1.511 and 1.328 and 1.593 and 0.893
same,MUSCYCG1R_DB81_seg19-20 normalized qRT-PCR result,[1]; [4],1.162 and 1.367 and 1.089 and 0.831
same,W41270_DB81_seg11 normalized qRT-PCR result,[1]; [4],0.745 and 0.945 and 0.938 and 0.606
same,H31883_DB71_seg13 normalized qRT-PCR result,[1]; [5],0.125 and 0.208 and 0.165 and 0.207 and 0.2 and 0.323
same,MUSCYCG1R_DB81_seg19-20 normalized qRT-PCR result,[1]; [5],2.031 and 0.904 and 0.937 and 0.783 and 1.364 and 0.717
same,W41270_DB81_seg11 normalized qRT-PCR result,[1]; [5],1.835 and 0.991 and 0.687 and 0.902 and 1.35 and 0.684
same,H31883_DB71_seg13 normalized qRT-PCR result,[1]; [6],0.861 and 0.549 and 0.725 and 1.045
same,MUSCYCG1R_DB81_seg19-20 normalized qRT-PCR result,[1]; [6],1.067 and 0.514 and 0.639 and 0.965
same,W41270_DB81_seg11 normalized qRT-PCR result,[1]; [6],0.898 and 0.415 and 0.502 and 1.028
same,H31883_DB71_seg13 normalized qRT-PCR result,[1]; [7],0.889 and 0.656 and 0.473
same,MUSCYCG1R_DB81_seg19-20 normalized qRT-PCR result,[1]; [7],0.932 and 0.544 and 0.541
same,W41270_DB81_seg11 normalized qRT-PCR result,[1]; [7],1.326 and 0.785 and 0.592
same,H31883_DB71_seg13 normalized qRT-PCR result,[1]; [8],1.025 and 0.454 and 1.074 and 1.674
same,MUSCYCG1R_DB81_seg19-20 normalized qRT-PCR result,[1]; [8],0.935 and 1.478 and 0.868 and 1.487
same,W41270_DB81_seg11 normalized qRT-PCR result,[1]; [8],0.989 and 1.223 and 0.652 and 1.056
same,H31883_DB71_seg13 normalized qRT-PCR result,[1]; [9],0.654 and 1.077 and 1.236 and 0.596
same,MUSCYCG1R_DB81_seg19-20 normalized qRT-PCR result,[1]; [9],0.539 and 1.161 and 1.793 and 0.73
same,W41270_DB81_seg11 normalized qRT-PCR result,[1]; [9],0.527 and 1.181 and 2.203 and 0.784
same,AI045075_DB71_seg6 normalized qRT-PCR expression (Interferon stimulated exonuclease 20 (ISG20) transcript),"[1]; dose Ds1, Day1, oral gavage",0.843 and 0.636 and 0.572
same,H31883_DB71_seg13 normalized qRT-PCR expression (Cyclin-G1 (CCNG1) transcript),"[1]; dose Ds1, Day1, oral gavage",0.913 and 0.757 and 0.615 and 0.73 and 0.524 and 0.783 and 0.912 and 0.87 and 0.957 and 0.923 and 0.706
same,MUSCYCG1R_DB81_seg19-20 normalized qRT-PCR expression,"[1]; dose Ds1, Day1, oral gavage",1.49 and 0.291 and 0.271 and 0.376 and 0.135 and 1.436 and 1.195 and 0.249 and 1.891 and 0.299 and 2.31
same,"W41270_DB81_seg11 normalized qRT-PCR expression (tumor necrosis factor receptor superfamily, member 12a transcript)","[1]; dose Ds1, Day1, oral gavage",0.66 and 0.181 and 0.396 and 0.198 and 0.231 and 0.758 and 0.646 and 0.47 and 1.082 and 0.734 and 0.566
same,W64472_DB81_seg2 normalized qRT-PCR expression (Interferon stimulated exonuclease 20 (ISG20) transcript),"[1]; dose Ds1, Day1, oral gavage",1.118 and 0.683 and 0.49
same,W83813_DB81_seg27 normalized qRT-PCR expression,"[1]; dose Ds1, Day1, oral gavage",0.216 and 0.843 and 0.926
same,AI045075_DB71_seg6 normalized qRT-PCR expression (Interferon stimulated exonuclease 20 (ISG20) transcript),"[1]; dose Ds1, Day5, oral gavage",0.692 and 0.627
same,H31883_DB71_seg13 normalized qRT-PCR expression (Cyclin-G1 (CCNG1) transcript),"[1]; dose Ds1, Day5, oral gavage",1.373 and 1.353 and 1.266 and 1.783 and 1.477 and 1.097 and 2.104 and 1.249 and 1.458 and 1.23 and 1.01 and 1.013
same,MUSCYCG1R_DB81_seg19-20 normalized qRT-PCR expression,"[1]; dose Ds1, Day5, oral gavage",1.598 and 0.183 and 0.149 and 0.214 and 3.532 and 0.296 and 3.397 and 0.186 and 1.317 and 0.189 and 0.816 and 1.499
same,"W41270_DB81_seg11 normalized qRT-PCR expression (tumor necrosis factor receptor superfamily, member 12a transcript)","[1]; dose Ds1, Day5, oral gavage",1.527 and 0.473 and 0.702 and 0.356 and 1.325 and 0.657 (2×) and 1.014 and 1.11 and 1.337 and 0.638 and 0.703
same,W64472_DB81_seg2 normalized qRT-PCR expression (Interferon stimulated exonuclease 20 (ISG20) transcript),"[1]; dose Ds1, Day5, oral gavage",0.571 and 0.528
same,W83813_DB81_seg27 normalized qRT-PCR expression,"[1]; dose Ds1, Day5, oral gavage",0.795 and 0.885
same,AI045075_DB71_seg6 normalized qRT-PCR expression (Interferon stimulated exonuclease 20 (ISG20) transcript),"[1]; dose Ds2, Day1, oral gavage",0.483 and 0.759 and 0.448 and 0.547 and 0.396
same,H31883_DB71_seg13 normalized qRT-PCR expression (Cyclin-G1 (CCNG1) transcript),"[1]; dose Ds2, Day1, oral gavage",0.517 (2×) and 0.906 and 0.849 and 0.696 and 0.611 and 0.707 and 0.867 and 1.153 and 1.19 and 0.623 and 0.798
same,MUSCYCG1R_DB81_seg19-20 normalized qRT-PCR expression,"[1]; dose Ds2, Day1, oral gavage",0.385 and 0.76 and 0.739 and 0.478 and 0.738 and 0.652 and 0.654 and 1.261 and 0.609 and 0.835 and 0.696 and 0.804
same,"W41270_DB81_seg11 normalized qRT-PCR expression (tumor necrosis factor receptor superfamily, member 12a transcript)","[1]; dose Ds2, Day1, oral gavage",0.78 and 0.755 and 0.885 and 0.462 and 0.413 and 0.762 and 0.644 and 1.034 and 1.265 and 0.653 and 0.383 and 0.472
same,W64472_DB81_seg2 normalized qRT-PCR expression (Interferon stimulated exonuclease 20 (ISG20) transcript),"[1]; dose Ds2, Day1, oral gavage",0.944 and 1.213 and 0.661 and 0.559 and 0.462
same,W83813_DB81_seg27 normalized qRT-PCR expression,"[1]; dose Ds2, Day1, oral gavage",1.186 and 0.984 and 0.34 and 0.689 and 0.56
same,AI045075_DB71_seg6 normalized qRT-PCR expression (Interferon stimulated exonuclease 20 (ISG20) transcript),"[1]; dose Ds2, Day5, oral gavage",0.797 and 0.766 and 1.01 and 0.629
same,H31883_DB71_seg13 normalized qRT-PCR expression (Cyclin-G1 (CCNG1) transcript),"[1]; dose Ds2, Day5, oral gavage",1.36 and 1.037 and 1.84 and 1.348 and 2.423 and 1.13 and 2.468 and 1.684 and 1.672 and 1.663 and 1.554 and 0.996
same,MUSCYCG1R_DB81_seg19-20 normalized qRT-PCR expression,"[1]; dose Ds2, Day5, oral gavage",0.359 and 0.871 and 0.852 and 0.761 and 1.197 and 0.631 and 1.238 and 0.528 and 1.583 and 1.018 and 0.919 and 0.756
same,"W41270_DB81_seg11 normalized qRT-PCR expression (tumor necrosis factor receptor superfamily, member 12a transcript)","[1]; dose Ds2, Day5, oral gavage",0.009 and 0.391 and 0.964 and 0.713 and 1.825 and 0.453 and 1.254 and 1.111 and 1.126 and 1.164 and 1 and 0.71
same,W64472_DB81_seg2 normalized qRT-PCR expression (Interferon stimulated exonuclease 20 (ISG20) transcript),"[1]; dose Ds2, Day5, oral gavage",0.803 and 0.863 and 0.982 and 0.554
same,W83813_DB81_seg27 normalized qRT-PCR expression,"[1]; dose Ds2, Day5, oral gavage",1.092 and 1.125 and 0.885 and 0.55
same,Average 'Toxic' (%),rat kidney samples; Ds1 Day1 Female,0%
same,Average 'Toxic' (%),rat kidney samples; Ds1 Day1 Male,17%
same,Average 'Toxic' (%),rat kidney samples; Ds1 Day5 Female,50%
same,Average 'Toxic' (%),rat kidney samples; Ds1 Day5 Male,50%
same,Average 'Toxic' (%),rat kidney samples; Ds2 Day1 Female,0%
same,Average 'Toxic' (%),rat kidney samples; Ds2 Day1 Male,0%
same,Average 'Toxic' (%),rat kidney samples; Ds2 Day5 Female,66.5%
same,Average 'Toxic' (%),rat kidney samples; Ds2 Day5 Male,33%
same,Toxicity conclusion from classifier calls,"rat kidney samples; signatures of Tables 26 and 27, 30% bound",nephrotoxic agents
same,Time after which visible pathological damage was seen,kidney,28 days
same,Renal damage,kidney; dose and duration as in the value,"renal damage, mainly in females, after 28 days of treatment at the 30 mg/kg dose"

# Source: patent US20160177395A1, “BIOMARKERS FOR THE PREDICTION OF RENAL INJURY” (priority 2007, published 2016)
